Where no end group is shown, it is not given here. Side-chain parts run from the residue outwards. The star is where a group is joined. Biotin = O=C1N[C@H]2[C@H](CS[C@H]2CCCCC(=O)*)N1; PEO = not defined here
Key:
HUVEC [1] = experiment: Serum withdrawal-induced cell death, Cell Death ELISA; type: cell-based, human; details: F12 plus 0.1% FBS, 16 hours; clustered Vasculotide at 500 pM (p=0.002) vs non-treated cells
Protocol: Based on the fact that clustered Vasculotide strongly activates the anti apoptotic protein AKT (see Example 3), the ability of Vasculotide to protect ECs from serum withdrawal-induced death was examined. To do so, HUVEC were maintained in F12 media plus 0.1% FBS for 16 hours in the presence of various concentrations of unclustered or clustered Vasculotide, followed by analysis of cell apoptosis via cell death ELISA. Analysis of apoptosis was performed using Cell Death ELISA Plus (Roche) according to manufacturers' specifications. The results are shown in FIG. 2A, in which values were normalized to basal levels of cell death for HUVECs maintained in full 10% FBS, growth factor supplemented F12 media. The results shown represent the mean of three replicates plus or minus 1 SD. Student's T-test was used for statistical analysis with P value indicated.

Tie 2 = Tie 2 (Homo sapiens, UniProt Q02763); experiment: Tie 2 activation (pY992 Tie 2 immunoblot) in HUVEC; type: cell-based; set-up: downstream signalling pathways in human umbilical vein endothelial cells (HUVEC) (Cambrex, N.J.); host or cells: HUVEC, passage 3-9; details: avidin alone and unclustered Vasculotide
Protocol: Having established that Vasculotide was able to bind Tie 2 (see Example 2), the ability of Vasculotide, when clustered with avidin in a 4:1 ratio (Vasculotide:avidin), to activate the Tie 2 receptor was tested by examining several well established downstream signalling pathways in human umbilical vein endothelial cells (HUVEC) (Cambrex, N.J.). Such signalling pathways are described in, for example, Kim, I. et al. (2000) Circ. Res. 9:952-959; Fujikawa, K. et al. (1999) Exp. Cell. Res. 2:663-672; Babaei, S. et al. (2003) Am. J. Pathol. 6:1927-1936.
HUVEC were grown on 6-well or 10 cm plates (Nunc) coated with gelatin (Sigma). HUVEC were cultured in F12 growth medium containing 10% fetal bovine serum (FBS), 0.1 mg/ml heparin sulphate, 1× penicillin, 1× streptomycin, 1× glutamine, VEGF 10 ng/ml, EGF 10 ng/ml, bFGF 5 ng/ml. All HUVEC were used between passage 3-9.
(§1) HUVEC were stimulated with one of either Ang 1 (R&D Systems), Vasculotide, avidin or clustered Vasculotide (preclustered with a 4:1 molar ratio of peptide:avidin in PBS for 2 hours at 4° C.) at various doses. Stimulations with Vasculotide were performed in full serum containing growth media for 15 minutes unless otherwise indicated. Cell lysate preparations and immunoblot analysis were performed by standard methods. Antibodies used for immunoblotting (in this and/or subsequent Examples) were monoclonal anti Tie 2 (Pharminogen), polyclonal anti pY992 Tie 2, (Cell Signaling Technology), polyclonal anti MAPK (Cell Signaling Technology), monoclonal anti phospho MAPK (Cell Signaling Technology), polyclonal anti AKT (Cell Signaling Technology), polyclonal anti pS473 AKT (Cell Signaling Technology), monoclonal anti pS1177 eNOS (BD Biosciences), polyclonal anti pY397 FAK (Biosource), polyclonal anti FAK (Santa Cruz), polyclonal anti smooth muscle actin-Cy3 direct conjugate (Dako), polyclonal anti PECAM (Pharminogen) and polyclonal anti smooth muscle actin (Sigma).
To examine Tie 2 activation kinetics, HUVEC were stimulated with native Ang 1 or clustered Vasculotide for various times. Stimulation was performed in 10% FBS. […] Overall, activation of the receptor by either Ang 1 or clustered Vasculotide followed a very similar time course with phosphorylation returning to almost basal levels sometime after 2 hours.

CD1 mice = experiment: Matrigel plug angiogenesis assay; type: in vivo, mouse
Protocol: To further examine the in vivo angiogenic potential of Vasculotide, a Matrigel assay was performed. More specifically, growth factor reduced Matrigel (BD Biosciences) was impregnated with either clustered Vasculotide or one of several different control factors. These Matrigel samples were injected subcutaneously into the flank region of 3 month old CD1 mice. 14 days post implantation and immediately prior to sacrifice, FITC lectin (100 μg) was injected IV and allowed to circulate for 10 minutes, to facilitate vessel identification and quantification. Plugs were surgically resected and fixed in 4% paraformaldehyde (PFA) for 16 h. Images of vascular topology were taken using a Zeiss dissecting microscope at 4× magnification. Upon fixing, all plugs were whole mount stained with anti-Sma1-Cy3. Plugs were analyzed on a Zeiss Axiovert 100 M confocal microscope (Carl Zeiss) for three dimensional image reconstruction and photos were processed using LSM Image Browser and Adobe Photoshop 7.0. Morphometric quantification of vessel characteristics was performed by skeletonizing confocal image projections with Image Processing Tool Kit 5.0 (IPTK 5.0). Student's t test was used to test the statistical significance with a 95% confidence interval. All experiments were performed with three replicates each, with at least 5 random image stacks.
To more fully address and assign quantitative vessel parameters to the different treatment groups, the plugs were fixed and interrogated with laser confocal microscopy analysis combined with post processing image analysis (Image Processing Tool Kit 5.0, Reindeer Graphics, N.C.). Vessel parameters, including length, number and branch points (nodes) were quantified on at least six representative fields. Statistical analysis was performed by way of unpaired Student's t test. Bar graphs of the number of vessels, vessel length and number of nodes, for each treatment group, are shown in FIGS. 3A, 3B and 3C, respectively. It is noted that poor perfusion of FITC-lecithin into mice harboring 20 nM clustered Vasculotide plus VEGF plugs prevented statistical analysis, therefore bars are the mean of two separate fields. All other bars shown represent mean+/−SD.
Ang 1 has been reported to potentiate the recruitment of myogenic support cells (Suri, C. et al. (1996) Cell 87:1171-1180) and inhibit VEGF induced vascular permeability through mechanisms that are not well understood (Thurston, G. et al. (2000) Nat. Med. 6:460-463). To determine if Vasculotide, like Ang 1, was capable of initiating pericyte recruitment, whole mount immunofluorescence was performed against smooth muscle actin 1 (Sma1). […] Sma 1 staining was tightly associated with the exterior of the vessels and was enriched on larger vessels.

[2] = test system: B6.Cg-m(+/+)Lepr(db)/J (db/db) mice; experiment: Excisional wound healing in diabetic mice, topical application; type: in vivo, mouse; details: bFGF 10 μg/ml
Protocol: Pathogen free, nine week old B6.Cg-m(+/+)Lepr(db)/J (db/db) mice were purchased from Jackson Laboratories. Circular, full excisional, 6 mm diameter wounds were made, according to animal committee approval guidelines, equal distant apart on the dorsal side of the mice. Various factors were suspended in sterile Intrasite Topical Gel (Smith and Nephew) at noted concentrations. Treatments were as follows: Vehicle n=8, bFGF (10 μg/ml) n=8, clustered Vasculotide (20 nM) n=4, clustered Vasculotide (5 nM) n=4. Preparations were applied at day 0 (time of wounding), day 2, 4 and 6. Standardized images were taken on days 0, 2, 4, 6 and 7 using a Canon EOS digital Rebel camera. Image J (NIH) was used to manually outline wound perimeter from which total pixel counts (wound area) were determined. Mice were sacrificed on day 7 and full wound beds including margin were excised and fixed in 4% PFA. Wounds were cut in half at the widest point and each half was prepared for either paraffin or frozen sections. Wax sections were processed according to standard protocols for H&E and Masson's Trichrome stain. Images were captured using a Leica DMLS compound light microscope and Pixel Link camera at 5× and 20×. Student's t test was used to test the statistical significance.
For histological scoring, sections were fixed in 4% paraformaldehyde, embedded in paraffin and sectioned and stained with H & E and Masson's trichrome. Sections were evaluated by a pathologist for re-epithelialization, granulation tissue formation, and inflammation, with criteria used for scoring skin as follows:
• 0—none • 1—minimal (0-20% regrowth from wound margins) • 2—mild (25% to 50% regrowth) • 3—moderate (>50% regrowth, up to 100% but not >2 cells thick along length) • 4—complete regrowth (epithelium>1 cell thick along length, keratinized) Granulation Tissue (GT) and Neovascularization: • 0—none • 1—minimal (1-3 small, isolated islands of GT at margins of defect) • 2—mild (multifocal, patchy islands of GT underlying tissue defect, <10 new blood vessels) • 3—moderate (locally extensive bands of GT underlying length of defect) • 4—marked (dense bands of GT at margins and underlying length of defect with collagen fibrils and numerous blood vessels) Inflammation (within Defect): • 0—none • 1—minimal (a few scattered neutrophils at margins of defect) • 2—mild (multifocal aggregates of up to 5 neutrophils underlying defect) • 3—moderate (multifocal aggregates of up to 10 neutrophils and occasional macrophages, minimal to mild edema) • 4—marked (locally extensive, dense neutrophilic infiltrates with lesser numbers of macrophages, mild-moderate edema)

HUVEC [3] = experiment: Modified Boyden chamber migration assay; type: cell-based, human; details: as in Example 4
Protocol: To test if Vasculotide, like Ang 1, was capable of promoting these processes, the effect of Vasculotide on EC migration was tested using a modified Boyden chamber assay. HUVEC were seeded at a density of 8.4×10^4 cells in 500 μl of F12 growth media plus 0.1% FBS in the upper chamber of an 8 μm pore size modified Boyden chamber (Falcon). 500 μl of F12 media plus 0.1% FBS plus various growth factors (Ang 1 (R& D Systems), unclustered or clustered Vasculotide, VEGF (R&D Systems) or clustered Vasculotide in combination with VEGF) or controls were placed in the bottom chamber. Cells were allowed to migrate for 4 hours in a 37° C., 5% CO2 incubator. Nonmigrating cells were scraped off, and filters were fixed in 100% methanol for 5 minutes, stained with Harris' Hematoxylin (BDH) for 10 minutes and washed twice with tap water for 3 minutes each. Filters were then mounted using Aquapolymount mounting medium. Cells that had migrated more than 50% of the way through the pore were scored as positive for migration.
Student's t test was used to test the statistical significance with a 95% confidence interval. Stimulations were performed in triplicate and migrating cells in 6 microscopic fields per replicate were counted.

MMP2 = experiment: Gelatin zymography of HUVEC conditioned media; type: cell-based, human; details: as in Example 4
Protocol: In vivo, ECs can not migrate until they secrete enzymes necessary to break down components of the extra cellular matrix. Gelatin zymography was employed to determine if clustered Vasculotide promoted secretion of MMP2. To perform the zymography, HUVEC were cultured in F12 media plus 0.1% FBS and stimulated for 16 h with VEGF, unclustered Vasculotide or clustered Vasculotide at various concentrations. Conditioned media was centrifuged to remove cellular debris and prepared for gel electrophoresis using non-reducing conditions. Gels were washed twice for 30 minutes in 2.5% Triton X-100 to remove sodium dodecyl sulfate and were then incubated in substrate buffer (50 mmol/L Tris-HCl, pH 8.8, 5 mmol/L CaCl2) for 16 hours at 37° C. Gels were then stained with 0.5% Coomassie blue in 30% methanol/10% acetic acid for 2 hours at room temperature and destained in 50% methanol/10% acetic acid. The presence of metalloproteinases was indicated by unstained proteolytic zones in the gel.

[4] = test system: focal adhesion kinase (FAK); experiment: FAK activation in HUVEC (pY397 FAK immunoblot); type: cell-based, human; details: time course
Protocol: as §1
To examine Tie 2 activation kinetics, HUVEC were stimulated with native Ang 1 or clustered Vasculotide for various times. Stimulation was performed in 10% FBS. […]

Chain of Tie 2 (Q02763 23-1124): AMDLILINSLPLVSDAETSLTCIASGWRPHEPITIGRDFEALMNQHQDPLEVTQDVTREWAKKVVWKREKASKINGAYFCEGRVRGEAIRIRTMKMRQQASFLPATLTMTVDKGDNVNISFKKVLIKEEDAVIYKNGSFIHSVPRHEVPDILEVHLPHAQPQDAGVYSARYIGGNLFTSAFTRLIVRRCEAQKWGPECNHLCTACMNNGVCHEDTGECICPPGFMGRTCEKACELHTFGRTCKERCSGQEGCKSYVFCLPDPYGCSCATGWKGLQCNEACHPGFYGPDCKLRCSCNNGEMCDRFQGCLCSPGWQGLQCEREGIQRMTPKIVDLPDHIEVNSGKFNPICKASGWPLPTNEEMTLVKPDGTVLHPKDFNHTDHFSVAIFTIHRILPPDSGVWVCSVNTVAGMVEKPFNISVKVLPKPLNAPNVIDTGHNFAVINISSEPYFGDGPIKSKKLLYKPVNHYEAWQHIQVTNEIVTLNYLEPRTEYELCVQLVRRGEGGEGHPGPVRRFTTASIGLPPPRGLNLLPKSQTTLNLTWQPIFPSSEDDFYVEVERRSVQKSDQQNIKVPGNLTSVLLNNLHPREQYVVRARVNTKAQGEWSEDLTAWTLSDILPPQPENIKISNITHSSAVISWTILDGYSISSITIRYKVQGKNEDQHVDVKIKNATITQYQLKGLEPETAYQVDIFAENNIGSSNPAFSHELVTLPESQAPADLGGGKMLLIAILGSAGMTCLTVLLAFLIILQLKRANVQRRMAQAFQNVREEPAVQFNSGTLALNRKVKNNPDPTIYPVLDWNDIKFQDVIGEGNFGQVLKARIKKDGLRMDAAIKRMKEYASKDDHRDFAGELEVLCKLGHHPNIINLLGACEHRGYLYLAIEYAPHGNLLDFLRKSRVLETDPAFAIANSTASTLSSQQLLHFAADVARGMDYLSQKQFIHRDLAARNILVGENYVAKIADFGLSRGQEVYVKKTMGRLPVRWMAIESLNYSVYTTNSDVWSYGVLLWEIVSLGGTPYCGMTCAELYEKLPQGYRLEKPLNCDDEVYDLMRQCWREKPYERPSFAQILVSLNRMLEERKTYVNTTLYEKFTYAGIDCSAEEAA

“avidin: tetramer agent with four binding sites for biotin, tested alone as control [reference compound]” was tested, and the “Apoptosis / survival after serum withdrawal” value (HUVEC [1]) was “no effect on survival” and the “Tie 2 phosphorylation without preclustering” value (Tie 2) was “only when preclustered with avidin was Vasculotide able to stimulate Tie 2 phosphorylation”.

VEGF [reference compound] was tested, and the “Nature of vessels (arborization, tortuosity)” value (CD1 mice; 14 days post implantation) was “highly tortuous”, the “Vessel growth in plugs (confocal analysis)” value (CD1 mice; 14 days post implantation, FITC lectin) was “robust induction of angiogenesis” and the “Angiogenic response in the membranous capsule surrounding the plugs” value (CD1 mice; 14 days post implantation, subcutaneous) was “distinct and robust angiogenic response”. For the same molecule, the “Smooth muscle actin 1 (Sma1) staining, pericyte recruitment” value (CD1 mice; whole mount immunofluorescence) was “relative absence of Sma1 positive staining cells”.

With “bFGF: growth factor used as comparator at 10 μg/ml in the wound gel [reference compound]” the “Wound closure by day 7” value [2] was “statistically indistinguishable from clustered Vasculotide at 20 nM or 5 nM” and the “Histological differences between vehicle and bFGF” value ([2]; p=0.0486) was “existed only at the level of inflammation”.

With “tetrameric GA3-containing compound: GA3 peptide (SEQ ID NO: 4) conjugated to PEO-maleimide-biotin, clustered with avidin in a 4:1 ratio (C([maleimide-PEO-Biotin])WTIIQRREDGSVDFQRTWKEYK; reading uncertain; also: avidin tetramer, 4 peptides per avidin, printed as Cys-Trp-Thr-Ile-Ile-Gln-Arg-Arg-Glu-Asp-Gly-Ser-Val-Asp-Phe-Gln-Arg-Thr-Trp-Lys-Glu-Tyr-Lys)” the “Endothelial cell migration (GA3 tetramer)” value (HUVEC [3]) was “effective in promoting endothelial cell migration” and the “MMP2 release (GA3 tetramer)” value (MMP2) was “effective in promoting MMP2 release”.

B1: Ang 1: angiopoietin 1, protein growth factor ligand for Tie 2 (R&D Systems) (protein, UniProt Q15389 16-498, looked up)
Angiopoietin-1: HIGCSNQRRSPENSGRRYNRIQHGQCAYTFILPEHDGNCRESTTDQYNTNALQRDAPHVEPDFSSQKLQHLEHVMENYTQWLQKLENYIVENMKSEMAQIQQNAVQNHTATMLEIGTSLLSQTAEQTRKLTDVETQVLNQTSRLEIQLLENSLSTYKLEKQLLQQTNEILKIHEKNSLLEHKILEMEGKHKEELDTLKEEKENLQGLVTRQTYIIQELEKQLNRATTNNSVLQKQQLELMDTVHNLVNLCTKEGVLLKGGKREEEKPFRDCADVYQAGFNKSGIYTIYINNMPEPKKVFCNMDVNGGGWTVIQHREDGSLDFQRGWKEYKMGFGNPSGEYWLGNEFIFAITSQRQYMLRIELMDWEGNRAYSQYDRFHIGNEKQNYRLYLKGHTGTAGKQSSLILHGADFSTKDADNDNCMCKCALMLTGGWWFDACGPSNLNGMFYTAGQNHGKLNGIKWHYFKGPSYSLRSTTMMIRPLDF
For B1, the “Activation of FAK” value [4] was “time dependently activated FAK”.

From patent publication US8957022B2, “Multimeric tie 2 agonists and uses thereof in stimulating angiogenesis” (Sunnybrook Health Sciences Centre, priority 2006, dated 2015)
